Test results from PubChem BioAssay AID2060897 (Molecular Pharmacology Branch, DTP, NCI, 2025).

System: 966289-007-R4-J1-PDC complex spheroid viability
Assay: Anticancer human tumor 966289-007-R4-J1-PDC patient-derived pancreatic adenocarcinoma cell line growth inhibition [RAS]
Settings: for IC50: curve of first compound; for viability, T/C: stronger effect = lower value; active = viability on the fitted dose curve at most 10% of control; inactive = the rest
Procedure, shortened: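 Multi-cell-type spheroids: tumor cells plus HUVEC endothelial cells and mesenchymal stem cells. RAS-pathway inhibitors were combined with targeted agents, each dosed in half-log steps down from clinical Cmax, or from 10 microM when Cmax was unknown.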
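Also: spheroids exposed to agents for one week before readout.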
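For viability, T/C in this document: percent viability relative to DMSO vehicle control wells as 100%.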

Cc1nc(N2CCC3(CC2)COC(C)C3N)c(CO)nc1Sc1ccnc(N)c1Cl (centres undefined) + CCn1c(-c2cccnc2C(C)OC)c2c3cc(ccc31)N1CCOC(CC(NC(=O)C(C(C)C)N(C)C(=O)C3(F)CCN(C(=O)C#CC(C)(C)N(C)C)CC3)C(=O)N3CCCC(N3)C(=O)OCC(C)(C)C2)C1
> 10 µM: IC50 (second compound 0.000949 µM) | IC50 (second compound 0.003 µM) | IC50 (second compound 0.00949 µM) | IC50 (second compound 0.03 µM) | IC50 (second compound 0.0949 µM) | IC50 (second compound 0.3 µM)
inactive: viability, T/C (second compound 0.000949 µM, first compound 0.0316 µM) 123% | viability, T/C (second compound 0.000949 µM, first compound 0.1 µM) 90.2% | viability, T/C (second compound 0.000949 µM, first compound 0.316 µM) 119% | viability, T/C (second compound 0.000949 µM, first compound 1 µM) 70.1% | viability, T/C (second compound 0.000949 µM, first compound 3.16 µM) 67.3% | viability, T/C (second compound 0.000949 µM, first compound 10 µM) 84.8% | viability, T/C (second compound 0.003 µM, first compound 0.0316 µM) 89.2% | viability, T/C (second compound 0.003 µM, first compound 0.1 µM) 89.6% | viability, T/C (second compound 0.003 µM, first compound 0.316 µM) 84.7% | viability, T/C (second compound 0.003 µM, first compound 1 µM) 80.3% | viability, T/C (second compound 0.003 µM, first compound 3.16 µM) 86.4% | viability, T/C (second compound 0.003 µM, first compound 10 µM) 88.9% | viability, T/C (second compound 0.00949 µM, first compound 0.0316 µM) 80.4% | viability, T/C (second compound 0.00949 µM, first compound 0.1 µM) 83.1% | viability, T/C (second compound 0.00949 µM, first compound 0.316 µM) 87% | viability, T/C (second compound 0.00949 µM, first compound 1 µM) 90.5% | viability, T/C (second compound 0.00949 µM, first compound 3.16 µM) 84% | viability, T/C (second compound 0.00949 µM, first compound 10 µM) 82.2% | viability, T/C (second compound 0.03 µM, first compound 0.0316 µM) 92.4% | viability, T/C (second compound 0.03 µM, first compound 0.1 µM) 84.7% | viability, T/C (second compound 0.03 µM, first compound 0.316 µM) 89.1% | viability, T/C (second compound 0.03 µM, first compound 1 µM) 82.6% | viability, T/C (second compound 0.03 µM, first compound 3.16 µM) 74.7% | viability, T/C (second compound 0.03 µM, first compound 10 µM) 97.3% | viability, T/C (second compound 0.0949 µM, first compound 0.0316 µM) 68.9% | viability, T/C (second compound 0.0949 µM, first compound 0.1 µM) 101% | viability, T/C (second compound 0.0949 µM, first compound 0.316 µM) 95.9% | viability, T/C (second compound 0.0949 µM, first compound 1 µM) 90.3% | viability, T/C (second compound 0.0949 µM, first compound 3.16 µM) 106% | viability, T/C (second compound 0.0949 µM, first compound 10 µM) 76.1% | viability, T/C (second compound 0.3 µM, first compound 0.0316 µM) 95.7% | viability, T/C (second compound 0.3 µM, first compound 0.1 µM) 89.2% | viability, T/C (second compound 0.3 µM, first compound 0.316 µM) 93.4% | viability, T/C (second compound 0.3 µM, first compound 1 µM) 144% | viability, T/C (second compound 0.3 µM, first compound 3.16 µM) 122% | viability, T/C (second compound 0.3 µM, first compound 10 µM) 114%

C=CC(=O)Nc1cc(Nc2nccc(-c3cn(C)c4ccccc34)n2)c(OC)cc1N(C)CCN(C)C + C#Cc1c(F)ccc2cc(O)cc(-c3ncc4c(N5CC6CCC(C5)N6)nc(OCC56CCCN5CC(F)C6)nc4c3F)c12
> 1 µM: IC50 (second compound 0.0316 µM) | IC50 (second compound 0.1 µM) | IC50 (second compound 0.316 µM) | IC50 (second compound 1 µM) | IC50 (second compound 3.16 µM) | IC50 (second compound 10 µM)
inactive: viability, T/C (second compound 0.0316 µM, first compound 0.00316 µM) 107% | viability, T/C (second compound 0.0316 µM, first compound 0.01 µM) 96% | viability, T/C (second compound 0.0316 µM, first compound 0.0316 µM) 101% | viability, T/C (second compound 0.0316 µM, first compound 0.1 µM) 96.3% | viability, T/C (second compound 0.0316 µM, first compound 0.316 µM) 94.2% | viability, T/C (second compound 0.0316 µM, first compound 1 µM) 94% | viability, T/C (second compound 0.1 µM, first compound 0.00316 µM) 94.8% | viability, T/C (second compound 0.1 µM, first compound 0.01 µM) 103% | viability, T/C (second compound 0.1 µM, first compound 0.0316 µM) 99.8% | viability, T/C (second compound 0.1 µM, first compound 0.1 µM) 110% | viability, T/C (second compound 0.1 µM, first compound 0.316 µM) 90.4% | viability, T/C (second compound 0.1 µM, first compound 1 µM) 88.8% | viability, T/C (second compound 0.316 µM, first compound 0.00316 µM) 108% | viability, T/C (second compound 0.316 µM, first compound 0.01 µM) 92.6% | viability, T/C (second compound 0.316 µM, first compound 0.0316 µM) 114% | viability, T/C (second compound 0.316 µM, first compound 0.1 µM) 105% | viability, T/C (second compound 0.316 µM, first compound 0.316 µM) 105% | viability, T/C (second compound 0.316 µM, first compound 1 µM) 87.2% | viability, T/C (second compound 1 µM, first compound 0.00316 µM) 102% | viability, T/C (second compound 1 µM, first compound 0.01 µM) 93.1% | viability, T/C (second compound 1 µM, first compound 0.0316 µM) 97% | viability, T/C (second compound 1 µM, first compound 0.1 µM) 106% | viability, T/C (second compound 1 µM, first compound 0.316 µM) 97.9% | viability, T/C (second compound 1 µM, first compound 1 µM) 82.8% | viability, T/C (second compound 3.16 µM, first compound 0.00316 µM) 108% | viability, T/C (second compound 3.16 µM, first compound 0.01 µM) 107% | viability, T/C (second compound 3.16 µM, first compound 0.0316 µM) 129% | viability, T/C (second compound 3.16 µM, first compound 0.1 µM) 101% | viability, T/C (second compound 3.16 µM, first compound 0.316 µM) 114% | viability, T/C (second compound 3.16 µM, first compound 1 µM) 106% | viability, T/C (second compound 10 µM, first compound 0.00316 µM) 97.5% | viability, T/C (second compound 10 µM, first compound 0.01 µM) 109% | viability, T/C (second compound 10 µM, first compound 0.0316 µM) 108% | viability, T/C (second compound 10 µM, first compound 0.1 µM) 118% | viability, T/C (second compound 10 µM, first compound 0.316 µM) 91.3% | viability, T/C (second compound 10 µM, first compound 1 µM) 115%
